Laboratory results from patent EP4685143A1 (Vivozon,Inc., priority 2023, dated 2024).

Biological target: T1, human HDAC6 enzyme (Homo sapiens, UniProt Q9UBN7)
T1 sequence (Q9UBN7 1-1215): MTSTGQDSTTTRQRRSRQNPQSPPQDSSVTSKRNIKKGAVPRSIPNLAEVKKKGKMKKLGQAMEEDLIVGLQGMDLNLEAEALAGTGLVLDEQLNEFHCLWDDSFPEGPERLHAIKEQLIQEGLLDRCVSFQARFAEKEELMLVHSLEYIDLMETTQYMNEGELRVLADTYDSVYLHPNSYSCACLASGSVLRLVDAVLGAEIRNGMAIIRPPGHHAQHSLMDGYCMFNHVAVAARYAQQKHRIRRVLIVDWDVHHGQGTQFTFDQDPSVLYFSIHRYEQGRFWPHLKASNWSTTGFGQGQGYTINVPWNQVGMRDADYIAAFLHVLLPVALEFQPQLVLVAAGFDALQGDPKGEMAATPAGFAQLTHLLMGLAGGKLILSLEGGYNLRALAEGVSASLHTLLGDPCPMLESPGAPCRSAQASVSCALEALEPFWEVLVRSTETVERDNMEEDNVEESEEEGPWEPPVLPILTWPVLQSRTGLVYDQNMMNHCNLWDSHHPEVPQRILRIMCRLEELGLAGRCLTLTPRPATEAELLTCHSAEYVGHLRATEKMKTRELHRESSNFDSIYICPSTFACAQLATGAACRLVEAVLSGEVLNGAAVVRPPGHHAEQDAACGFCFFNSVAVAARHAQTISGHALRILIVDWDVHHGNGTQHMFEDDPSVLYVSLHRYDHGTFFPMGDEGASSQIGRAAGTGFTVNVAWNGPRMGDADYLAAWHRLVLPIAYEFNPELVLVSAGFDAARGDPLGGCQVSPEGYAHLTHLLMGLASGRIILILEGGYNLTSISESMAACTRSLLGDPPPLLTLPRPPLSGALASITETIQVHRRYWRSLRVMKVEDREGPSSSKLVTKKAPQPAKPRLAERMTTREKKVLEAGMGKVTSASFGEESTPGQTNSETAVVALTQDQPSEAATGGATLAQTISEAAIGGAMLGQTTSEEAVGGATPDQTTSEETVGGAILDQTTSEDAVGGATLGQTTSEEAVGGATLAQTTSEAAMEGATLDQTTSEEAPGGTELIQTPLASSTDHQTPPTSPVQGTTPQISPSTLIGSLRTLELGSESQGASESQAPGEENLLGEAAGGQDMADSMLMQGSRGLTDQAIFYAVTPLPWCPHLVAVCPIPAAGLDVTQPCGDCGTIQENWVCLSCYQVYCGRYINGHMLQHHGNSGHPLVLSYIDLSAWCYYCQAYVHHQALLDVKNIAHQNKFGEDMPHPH
Test: Fluorescence-based enzyme activity assay
Format: biochemical
Conditions: substrate with fluorescent peptide of p53 residues 379-382, 30°C for 1 hour
Method: Experimental Example 1: Fluorescence-based enzyme activity assay
In order to measure the inhibitory effect of the compounds on the activity of histone deacetylase 6 (HDAC6), an enzyme activity assay was performed to evaluate the enzyme activity by reacting the human HDAC6 enzyme with a substrate to which a fluorescent peptide of p53 residues 379-382 was attached. The test compounds were dissolved in 100% DMSO at a concentration of 10 mM to prepare a stock solution. A starting concentration of 30 µM was prepared from the stock solution, followed by 1/3 serial dilutions to prepare the test buffer solution. Trichostatin A (TSA)-which is the reference compound used to confirm the validity of the experiment-was serially diluted by 1/3 with the test buffer solution, starting from the highest concentration of 1 µM. To react the test compounds and TSA prepared in the test buffer with the HDAC6 enzyme, they were dispensed into a 96-well black plate and spin-down of the plate was performed. Then, the reaction was carried out at room temperature for 10 minutes. After 10 minutes, the substrate was dispensed, and the plate was sealed. The reaction was carried out at 30°C for 1 hour under light-blocking conditions. Fluorescence values were measured using a plate reader (wavelength: excitation/emission = 360/460 nm). The fluorescence measurements were normalized to the HDAC6 enzyme-treated group as 100% and the untreated group as 0%, respectively. […]

Row | Structure (SMILES) | IC50 [nM]
1 | O=c1cc(-c2nnc(C(F)F)o2)ccn1CC#Cc1ccccc1 [Example 1, 4-(5-(difluoromethyl)-1,3,4-oxadiazol-2-yl)-1-(3-phenylprop-2-yn-1-yl)pyridin-2(1H)-one] | < 100
2 | O=c1cc(-c2noc(C(F)(F)F)n2)ccn1CC#Cc1ccccc1 [Example 2, 1-(3-phenylprop-2-yn-1-yl)-4-(5-(trifluoromethyl)-1,2,4-oxadiazol-3-yl)pyridin-2(1H)-one] | 500 to 1000
3 | O=c1cc(-c2noc(C(F)(F)F)n2)ccn1CC#Cc1ccncc1 [Example 3, 1-(3-(pyridin-4-yl)prop-2-yn-1-yl)-4-(5-(trifluoromethyl)-1,2,4-oxadiazol-3-yl)pyridin-2(1H)-one] | 100 to 500
4 | O=c1cc(-c2noc(C(F)(F)F)n2)ccn1CC#Cc1cccnc1 [Example 4, 1-(3-(pyridin-3-yl)prop-2-yn-1-yl)-4-(5-(trifluoromethyl)-1,2,4-oxadiazol-3-yl)pyridin-2(1H)-one] | 100 to 500
5 | O=c1cc(-c2noc(C(F)(F)F)n2)ccn1CC#Cc1ccccn1 [Example 5, 1-(3-(pyridin-2-yl)prop-2-yn-1-yl)-4-(5-(trifluoromethyl)-1,2,4-oxadiazol-3-yl)pyridin-2(1H)-one] | 100 to 500
6 | O=c1cc(-c2noc(C(F)(F)F)n2)ccn1CC#Cc1ccccc1F [Example 6, 1-(3-(2-fluorophenyl)prop-2-yn-1-yl)-4-(5-(trifluoromethyl)-1,2,4-oxadiazol-3-yl)pyridin-2(1H)-one] | 500 to 1000
7 | O=c1cc(-c2nnc(C(F)F)o2)ccn1CC#Cc1ccncc1 [Example 8, 4-(5-(difluoromethyl)-1,3,4-oxadiazol-2-yl)-1-(3-(pyridin-4-yl)prop-2-yn-1-yl)pyridin-2(1H)-one] | < 100
8 | O=c1cc(-c2nnc(C(F)F)o2)ccn1CC#Cc1cccnc1 [Example 9, 4-(5-(difluoromethyl)-1,3,4-oxadiazol-2-yl)-1-(3-(pyridin-3-yl)prop-2-yn-1-yl)pyridin-2(1H)-one] | < 100
9 | O=c1cc(-c2nnc(C(F)F)o2)ccn1CC#Cc1ccccn1 [Example 10, 4-(5-(difluoromethyl)-1,3,4-oxadiazol-2-yl)-1-(3-(pyridin-2-yl)prop-2-yn-1-yl)pyridin-2(1H)-one] | < 100
10 | O=c1cc(-c2nnc(C(F)F)o2)ccn1CC#Cc1ccc(F)cc1 [Example 11, 4-(5-(difluoromethyl)-1,3,4-oxadiazol-2-yl)-1-(3-(4-fluorophenyl)prop-2-yn-1-yl)pyridin-2(1H)-one] | < 100
11 | O=c1cc(-c2nnc(C(F)F)o2)ccn1CC#Cc1cccc(F)c1 [Example 12, 4-(5-(difluoromethyl)-1,3,4-oxadiazol-2-yl)-1-(3-(3-fluorophenyl)prop-2-yn-1-yl)pyridin-2(1H)-one] | < 100
12 | O=c1cc(-c2nnc(C(F)F)o2)ccn1CC#Cc1ccccc1F [Example 13, 4-(5-(difluoromethyl)-1,3,4-oxadiazol-2-yl)-1-(3-(2-fluorophenyl)prop-2-yn-1-yl)pyridin-2(1H)-one] | < 100
13 | O=c1cc(-c2nnc(C(F)F)o2)ccn1CC#Cc1ccc(Cl)cc1 [Example 14, 1-(3-(4-chlorophenyl)prop-2-yn-1-yl)-4-(5-(difluoromethyl)-1,3,4-oxadiazol-2-yl)pyridin-2(1H)-one] | < 100
14 | O=c1cc(-c2nnc(C(F)F)o2)ccn1CC#Cc1ccccc1Cl [Example 16, 1-(3-(2-chlorophenyl)prop-2-yn-1-yl)-4-(5-(difluoromethyl)-1,3,4-oxadiazol-2-yl)pyridin-2(1H)-one] | < 100
15 | COc1cccc(C#CCn2ccc(-c3nnc(C(F)F)o3)cc2=O)c1 [Example 21, 4-(5-(difluoromethyl)-1,3,4-oxadiazol-2-yl)-1-(3-(3-methoxyphenyl)prop-2-yn-1-yl)pyridin-2(1H)-one] | < 100
16 | O=c1cc(-c2nnc(C(F)F)o2)ccn1CC#Cc1cccc(Cl)n1 [Example 22, 1-(3-(6-chloropyridin-2-yl)prop-2-yn-1-yl)-4-(5-(difluoromethyl)-1,3,4-oxadiazol-2-yl)pyridin-2(1H)-one] | < 100
17 | Cc1cncc(C#CCn2ccc(-c3nnc(C(F)F)o3)cc2=O)c1 [Example 29, 4-(5-(difluoromethyl)-1,3,4-oxadiazol-2-yl)-1-(3-(5-methylpyridin-3-yl)prop-2-yn-1-yl)pyridin-2(1H)-one] | < 100
18 | CS(=O)(=O)c1cccc(C#CCn2ccc(-c3nnc(C(F)F)o3)cc2=O)c1 [Example 32, 4-(5-(difluoromethyl)-1,3,4-oxadiazol-2-yl)-1-(3-(3-(methylsulfonyl)phenyl)prop-2-yn-1-yl)pyridin-2(1H)-one] | < 100
19 | O=c1cc(-c2nnc(C(F)F)o2)ccn1CC#Cc1cccc(Cl)c1F [Example 33, 1-(3-(3-chloro-2-fluorophenyl)prop-2-yn-1-yl)-4-(5-(difluoromethyl)-1,3,4-oxadiazol-2-yl)pyridin-2(1H)-one] | < 100
20 | O=c1cc(-c2nnc(C(F)F)o2)ccn1CC#Cc1ccc(F)c(Cl)c1 [Example 34, 1-(3-(3-chloro-4-fluorophenyl)prop-2-yn-1-yl)-4-(5-(difluoromethyl)-1,3,4-oxadiazol-2-yl)pyridin-2(1H)-one] | < 100
21 | O=c1cc(-c2nnc(C(F)F)o2)ccn1CC#Cc1cc(F)cc(Cl)c1 [Example 35, 1-(3-(3-chloro-5-fluorophenyl)prop-2-yn-1-yl)-4-(5-(difluoromethyl)-1,3,4-oxadiazol-2-yl)pyridin-2(1H)-one] | < 100
22 | O=c1cc(-c2nnc(C(F)F)o2)ccn1CC#Cc1ccc2scnc2c1 [Example 40, 1-(3-(benzo[d]thiazol-5-yl)prop-2-yn-1-yl)-4-(5-(difluoromethyl)-1,3,4-oxadiazol-2-yl)pyridin-2(1H)-one] | 100 to 500
23 | Cc1nc2ccc(C#CCOc3cc(-c4nnc(C(F)F)o4)ccn3)cc2s1 [Example 41] | 500 to 1000
24 | Cc1ncc(C#CCn2ccc(-c3nnc(C(F)F)o3)cc2=O)[nH]1 [Example 42, 4-(5-(difluoromethyl)-1,3,4-oxadiazol-2-yl)-1-(3-(2-methyl-1H-imidazol-5-yl)prop-2-yn-1-yl)pyridin-2(1H)-one] | < 100
25 | O=c1cc(-c2nnc(C(F)F)o2)ccn1CC#Cc1ccsc1 [Example 43, 4-(5-(difluoromethyl)-1,3,4-oxadiazol-2-yl)-1-(3-(thiophen-3-yl)prop-2-yn-1-yl)pyridin-2(1H)-one] | < 100
